Laboratory results: ChEMBL document CHEMBL5726630, “Inhibitors of human immunodeficiency virus replication” (2019)

Assay: Biological Methods: HIV cell culture assay-MT-2 cells, 293T cells and the proviral DNA clone of NL4-3 virus were obtained from the NIH AIDS Research and Reference Reagent Program. MT-2 cells were propagated in RPMI 1640 media supplemented with 10% heat inactivated fetal bovine serum (FBS), 100 jag/ml penicillin G and up to 100 units/mL streptomycin. The 293T cells were propagated in DMEM media supplemented with 10% heat inactivated FBS, 100 μg/mL penicillin G and 100 μg/mL streptomycin. A recombinant NL4-3 proviral clone, in which a section of the nef gene was replaced with the Renilla luciferase gene, was used to make the reference virus used in these studies. The recombinant virus was prepared through transfection of the recombinant NL4-3 proviral clone into 293T cells using Transit-293 Transfection Reagent from Mirus Bio LLC (Madison, Wis.). Supernatant was harvested after 2-3 days and the amount of virus present was titered in MT-2 cells using luciferase enzyme activity as a marker by measuring luciferase enzyme activity. Luciferase was quantitated using the EnduRen Live Cell Substrate from Promega (Madison, Wis.). Antiviral activities of compounds toward the recombinant virus were quantified by measuring luciferase activity in MT-2 cells infected for 4-5 days with the recombinant virus in the presence of serial dilutions of the compound.
Type: cell-based

Row | SMILES | EC50 [µM]
1 | C[C@H]1CCc2ccccc2N1S(=O)(=O)NC(=O)N[C@@H](Cc1cc(F)cc(F)c1)C(=O)N(C)c1ccc2scnc2c1 | 0.09
2 | C[C@@H]1Cc2cccnc2N1S(=O)(=O)NC(=O)N[C@@H](Cc1cc(F)cc(F)c1)C(=O)N(C)c1ccc2scnc2c1 | 0.02
3 | C[C@H]1Cc2cccnc2N1S(=O)(=O)NC(=O)N[C@@H](Cc1cc(F)cc(F)c1)C(=O)N(C)c1ccc2scnc2c1 | 0.05
4 | C[C@@H]1CCc2ccccc2N1S(=O)(=O)NC(=O)N[C@@H](Cc1cc(F)cc(F)c1)C(=O)N(C)c1ccc2scnc2c1 | 0.1
5 | CC1CN(S(=O)(=O)NC(=O)N[C@@H](Cc2cc(F)cc(F)c2)C(=O)N(C)c2ccc3scnc3c2)c2ncccc21 (single isomer, unassigned) | < 0.01
